Results on 76 compounds are retold here after the supplement of paper PMC6723410.

The structures appear in SMILES notation.

The test system of one assay is GUMC-403. Description: viability at highest tested concentration (max response) relative to DMSO (% of DMSO control); higher = less cytotoxic. The note with it: library / dose series: MIPE library, 11-point 1:3 dilution; top concentration 23 µM; 48 h. In outline:
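This value is viability at the highest tested concentration relative to vehicle control. GUMC-403 papilloma cells from a patient, grown by conditional reprogramming, were plated at 700/well in 1536-well plates and given 23 nL of compound by pin tool for 48 h. CellTiter-Glo luminescence on a ViewLux was normalised with vehicle wells at 100% and empty wells at 0%.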
On to `C[C@]12CC(=O)[C@H]3[C@@H](CC\C4=C\C(=O)\C=C/[C@]34C)[C@@H]1CC[C@]2(O)C(=O)CO`, for which the viability stood at 131.

Take `CC[C@H](/C=C/[C@@H](C)[C@H]1CC[C@H]2[C@@H]3CC=C4C[C@@H](O)CC[C@]4(C)[C@H]3CC[C@]12C)C(C)C`: the viability came to 104.

Still in this assay, the particulars now being: library / dose series: MIPE library, 11-point 1:3 dilution; top concentration 46.1 µM; 48 h.
As for `Cc1nc(NC(=O)N2CCC[C@H]2C(N)=O)sc1-c1ccnc(C(C)(C)C(F)(F)F)c1`, the viability was 42.4.

In turn, `Cc1cccc(Nc2ccncc2[S+](=O)([O-])NC(=O)NC(C)C)c1` yielded a viability of 108.

Turning to `CC(=O)OCC(CCn1cnc2cnc(N)nc21)COC(C)=O`, the viability was 116.

The compound `CC(S)C(=O)NCC(=O)O` (stereo unspecified) yielded a viability of 135.

In turn, `CN1CCN(c2c(F)cc3c(=O)c(C(=O)O)cn(CCF)c3c2F)CC1` showed a viability of 104.

The compound `O=C(O)CC/C=C\CC[C@@H]1[C@@H](N2CCCCC2)[C@@H](O)C[C@@H]1OCc1ccc(-c2ccccc2)cc1` registered a viability of 112.

`NC(=O)NO` registered a viability of 51.9.

Consider `ClC/1=C(NCCN2CCOCC2)/C(=O)C3=C(C=CC=N3)C1=O`, for which the viability turned out to be 2.43.

`O=C1c2cccc(O)c2C(=O)c2c(O)cc(CO)cc21` displayed a viability of 92.9.

For the compound `COc1ccc2c(c1)c(CC(=O)O)c(C)n2C(=O)c1ccc(Cl)cc1`, the viability is 111.

Compound `CNC(=O)c1c(-c2ccc(F)cc2)oc2cc(N(CCO)[S+](C)(=O)[O-])c(C3CC3)cc12` displayed a viability of 69.1.

In turn, `Cc1cc(C[S+](=O)([O-])c2ccccc2)cc(OCc2ccc(CN3CCC[C@@H]3CO)cc2)c1` came in with a viability of 116.

`Cc1noc(N[S+](=O)([O-])c2ccc(N)cc2)c1C` returned a viability of 130.

`COc1ccccc1OCC(O)COC(N)=O` (stereo unspecified): the viability amounted to 117.

Take `Cc1cn([C@@H]2O[C@H](CO)[C@@H](O)[C@@H]2F)c(=O)[nH]c1=O`: the viability was 128.

As to `CC(C)(C)C1=NC2=C([NH]1)C3=CC=C(F)C=C3C4=C2\C=C/NC4=O`, the viability is 133.

On to `C[C@@H](O)[C@@H]1NC(=O)[C@H](CCCCN)NC(=O)[C@@H](Cc2c[nH]c3ccccc23)NC(=O)[C@H](Cc2ccccc2)NC(=O)[C@@H](NC(=O)[C@H](N)Cc2ccccc2)CSSC[C@@H](C(=O)N[C@H](CO)[C@@H](C)O)NC1=O`, for which the viability was 89.7.

In turn, `C[C@H](CCC(=O)O)[C@H]1CCC2C3C[C@H](O)[C@@H]4C[C@H](O)CC[C@]4(C)C3CC[C@@]21C` (stereo partly specified) came in with a viability of 108.

As to `COc1cc(C)c(/C=C/C(C)=C/C=C/C(C)=C/C(=O)O)c(C)c1C`, the viability is 101.

As for `C[C@]1(CO)CN(c2cc(C(=O)Nc3ccc4c(c3)-c3c(c(C(N)=O)nn3-c3ccc(F)cc3)CC4)c(Cl)cn2)C[C@@]1(C)CO`, the viability came to 64.7.

As to `C[C@H](NC(=O)[C@@H](O)c1cc(F)cc(F)c1)C(=O)N[C@@H]1C(=O)N(C)c2ccccc2-c2ccccc21`, the viability was determined as 99.

In turn, `OC[C@H]1O[C@H]([C@H](O)[C@@H]1O)N2\C=C/C(=O)NC2=O` came in with a viability of 121.

The compound `CCN1\C=C(\C(O)=O)C(=O)C2=C1N=C(N3CCNCC3)C(=C2)F` came in with a viability of 95.7.

`NC[C@H]1O[C@H](O[C@H]2[C@H](O)[C@@H](O[C@H]3O[C@H](CO)[C@@H](O)[C@H](N)[C@H]3O)[C@H](N)C[C@@H]2N)[C@H](N)C[C@@H]1O` showed a viability of 125.

`c1cc2c(cc1[C@H]1OC[C@H]3[C@@H]1CO[C@@H]3c1ccc3c(c1)OCO3)OCO2`: the viability came to 124.

`N[C@@H](Cc1c[nH]c2ccc(O)cc12)C(=O)O` had a viability of 106.

With `O=C(NCc1ccccc1)[C@H](Cc1ccccc1)NC(=O)[C@H]1O[C@@H]1C(=O)NCCc1ccc(O)cc1`, the viability worked out at 107.

With `NC(CO)(CO)CCc1ccc(Sc2cccc(OCc3ccccc3)c2)cc1Cl`, the viability was found to be 118.

The compound `N/C(=N\C(=O)c1nc(Cl)c(N)nc1N)NCc1ccccc1` returned a viability of 130.

`CN(c1nccc(=O)[nH]1)C1CCN(c2nc3ccccc3n2Cc2ccc(F)cc2)CC1` returned a viability of 97.4.

In turn, `CC/1=C(\CCN2CCC(CC2)C3=NOC4=C3C=CC(=C4)F)C(=O)N/5CCCCC5=N1` had a viability of 114.

Consider `O=C(c1ccc(/C=C/c2n[nH]c3ccccc23)cc1)N1CCNCC1`, for which the viability amounted to 86.5.

Consider `CCC[C@@H]1C[C@@H](C(=O)N[C@@H]([C@H]2O[C@H](SC)[C@H](O)[C@@H](O)[C@H]2O)[C@@H](C)O)N(C)C1.Cl`, for which the viability came out at 101.

In turn, `OC[C@H]1O[C@@H](Oc2ccc(O)cc2)[C@H](O)[C@@H](O)[C@@H]1O` came in with a viability of 99.9.

Consider `OC[C@H]1O[C@@H](OCCc2ccc(O)cc2)[C@H](O)[C@@H](O)[C@@H]1O`, for which the viability came out at 107.

`Cc1cccc(/C=N/Nc2cc(N3CCOCC3)nc(OCCc3ccccn3)n2)c1` returned a viability of 87.4.

`c1cc(CN2CCCNCCNCCCNCC2)ccc1CN1CCCNCCNCCCNCC1` had a viability of 144.

Turning to `NC(=O)c1ncn([C@@H]2O[C@H](CO)[C@@H](O)[C@H]2O)n1`, the viability amounted to 99.6.

For `C[C@](O)(COc1ccc(C#N)cc1)C(=O)Nc1ccc(C#N)c(C(F)(F)F)c1`, the viability stood at 93.8.

In turn, `COc1ccccc1[C@H](c1cccc2ccccc12)[C@@](C)(C#N)C(=O)N1CCC(c2cccc(C(F)(F)F)c2)CC1` displayed a viability of 86.3.

`N#C/C(=C1/Nc2ccccc2S1)c1ccnc(OCc2ccc(CN3CCOCC3)cc2)n1`: the viability stood at 91.3.

For the compound `CCN(CC)CCCCNc1nc2cc(Cl)c(Cl)cc2nc1-c1ccc(-c2cccs2)s1`, the viability worked out at 92.1.

Compound `C[C@@H](N)c1ccc(C(=O)Nc2ccnc3[nH]ccc23)cc1` gave a viability of 139.

`C[S+](=O)([O-])OCCCCO[S+](C)(=O)[O-]`: the viability was found to be 134.

Compound `NC1=C(Cl)C(=CC=N1)OC2=C(F)C=C(NC(=O)\C3=C\N\C=C(C3=O)\C4=CC=C(F)C=C4)C=C2` had a viability of 108.

In turn, `CN(C)[S+](=O)([O-])c1ccc2c(c1)C(=Cc1cc3c([nH]1)CCCC3)C(=O)N2` returned a viability of 122.

Regarding `CC1(C)CCC(=C(CN2CCN(CC2)C3=CC=C(C=C3)C(=O)N[S+]([O-])(=O)C4=CC(=C(N[C@H](CCN5CCOCC5)CSC6=CC=CC=C6)C=C4)[S+]([O-])(=O)C(F)(F)F)\C1)/C7=CC=C(Cl)C=C7`, the viability was 97.

The compound `Cc1ccc(NC(=O)c2ccc(CN3CCN(C)CC3)cc2)cc1Nc1nccc(-c2cccnc2)n1` displayed a viability of 127.

On to `C[C@H]1CN(C[C@@H](C)O1)CC(=O)NC2=CC=C3SC4=C(CC3=C2)C=CC=C4\C5=C\C(=O)\C=C(/O5)N6CCOCC6`, for which the viability is 115.

Consider `Cc1ccccc1C(=O)c1ccc(Nc2ccc(Br)cc2N)cc1Cl`, for which the viability was 103.

Turning to `Cc1cc2c(cc1C1(c3ccc(C(=O)O)cn3)CC1)C(C)(C)CCC2(C)C`, the viability stood at 129.

Compound `O=C(O)CCNc1cc(N2CCc3ccccc3CC2)nc(-c2ccccn2)n1` returned a viability of 125.

For `Nc1nnc(-c2cccc(Cl)c2Cl)c(N)n1`, the viability came to 82.5.

With `Nc1nc(OCc2ccccc2)c2nc[nH]c2n1`, the viability was 111.

On to `CN1\N=N/C2=C(N=C[N]2C1=O)C(N)=O`, for which the viability came to 121.

The compound `F\C1=C\NC(=O)NC1=O` registered a viability of 109.

The compound `O=C(O)c1ccc(-n2nc(-c3ccccc3O)nc2-c2ccccc2O)cc1` displayed a viability of 80.9.

The compound `C[C@](N)(Cc1ccc(O)c(O)c1)C(=O)O` came in with a viability of 89.6.

In turn, `CN(C)CCOc1ccc(/C(=C(/CCCl)c2ccccc2)c2ccccc2)cc1` had a viability of 104.

In turn, `COc1cc(C(=O)NC2CCN(C)CC2)ccc1Nc1ncc2c(n1)N(C1CCCC1)CCC(=O)N2C(C)C` returned a viability of 93.5.

Turning to `CC(C)N(CCNC(=O)CN1CCCC1=O)C(C)C`, the viability turned out to be 103.

The compound `O=C(c1ccccc1)c1ccc2n1CCC2C(=O)O` (stereo unspecified) yielded a viability of 75.8.

In turn, `Clc1ccc(C2(c3ccc(-c4cn[nH]c4)cc3)CCNCC2)cc1` came in with a viability of 59.9.

On to `COc1ccc2cc(-c3[nH]c(-c4ccc([S+](C)[O-])cc4)nc3-c3ccncc3)ccc2c1` (stereo unspecified), for which the viability is 144.

Consider `Cc1ccc(F)c(NC(=O)Nc2ccc(-c3cccc4[nH]nc(N)c34)cc2)c1`, for which the viability was found to be 50.7.

Regarding `CCOC(=O)c1ncn2c1CN(C)C(=O)c1cc(F)ccc1-2`, the viability is 108.

As to `c1cc(-c2cnn3cc(-c4ccc(OCCN5CCCCC5)cc4)cnc23)ccn1`, the viability came out at 48.4.

`NC/1=N/C(=O)N(/C=C1)[C@H]2CC[C@@H](CO)O2` displayed a viability of 84.4.

With `CN1CCCN=C1/C=C/c1cccs1.O=C(O)c1cc2ccccc2c(Cc2c(O)c(C(=O)O)cc3ccccc23)c1O`, the viability is 79.8.

With `Fc1ccc(CNc2ncnc3ccc(F)cc23)cc1`, the viability was 80.4.

For the compound `CC(C)OC1=CC=C2C(=C1)O\C=C(/C2=O)C3=CC=CC=C3`, the viability worked out at 111.

`COC(=O)C\1=C(C)\N\C(=C(/C1C2=CC=CC3=NON=C23)C(=O)OC(C)C)C` (stereo unspecified) gave a viability of 89.7.

For the compound `CNC(=O)c1ccc(N2C(=S)N(c3ccc(C#N)c(C(F)(F)F)c3)C(=O)C2(C)C)cc1F`, the viability amounted to 119.

Still in this assay, the particulars now being: library / dose series: MIPE library, 11-point 1:3 dilution; top concentration 92.2 µM; 48 h.
For the compound `O=C(O)[C@H](Cc1c[nH]c2ccccc12)N1C(=O)c2ccccc2C1=O`, the viability was found to be 116.
